Among the data in patent US20250171414A1, “COMPOUND SERVING AS MASP-2 INHIBITOR, PHARMACEUTICAL COMPOSITION, PREPARATION METHOD THEREFOR, AND USE THEREOF” (WUHAN CREATERNA SCIENCE AND TECHNOLOGY CO., LTD., priority 2022, published 2025) are IC50 values, retold here.

For orientation: IC50 means the concentration needed to halve the response being measured. A higher IC50 goes with a need for much substance.

For this experiment, the system named is lectin pathway (MBL) in human serum. The experiment can be described thus: Inhibition of activity of lectin pathway (MBL) in human serum (WIESLAB Complement System MBL Pathway kit). It is filed as biochemical. Conditions: 1% human serum. On the procedure:
The inhibition of the activity of the lectin pathway (MBL) in human serum by compounds was detected using a WIESLAB® Complement System MBL Pathway kit (SVAR, COMPLMP320). Test compounds were each serially diluted in a buffer (Diluent MP), and 1% human serum was incubated with the diluted compound solution for 15 min at room temperature. 100 μL of the mixture was added to a microplate and incubated at 37° C. for 60 min. The liquid in the wells was discarded, and the microplate was washed three times with a washing solution. A Conjugate antibody solution was added at 100 μL/well, and the resulting mixture was incubated for 30 min at 25° C. The liquid in the wells was discarded, and the microplate was washed three times with a washing solution; a substrate solution was added at 100 μL/well, and the resulting mixture was incubated for 30 min at 25° C.; the terminator was added at 50 μL/well, and the absorbance at 405 nm was detected within 30 min by using a microplate reader.

`C[C@H](NC(=O)[C@H]1C[C@@H](c2ccccc2)CCN1)C(=O)NC1CCc2nc(N)ccc21` (stereo partly drawn) [Compound L021-IS-01, (2R,4S)—N-((2S)-1-((2-amino-6,7-dihydro-5H-cyclopenta[b]pyridin-5-yl)amino)-1-oxopropan-2-yl)-4-phenylpiperidine-2-carboxamide] gave an IC50 of 0.26 nM.

Molecule `C[C@H](NC(=O)[C@H]1CC(c2cccc(F)c2)CCN1)C(=O)NC1CCc2nc(N)ccc21` (stereo in doubt) [Compound L039-IS-02, (2R,4S)-N-((2S)-1-((2-amino-6,7-dihydro-5H-cyclopenta[b]pyridin-5-yl)amino)-1-oxopropan-2-yl)-4-(3-fluorophenyl)piperidine-2-carboxamide] yielded an IC50 of 2.36 nM.

For `C[C@H](NC(=O)[C@H]1C[C@@H](c2cccc(OC(F)(F)F)c2)CCN1)C(=O)NC1CCc2nc(N)ccc21` (stereo partly drawn) [Compound L046-IS-02, (2R,4S)-N-((2S)-1-((2-amino-6,7-dihydro-5H-cyclopenta[b]pyridin-5-yl)amino)-1-oxopropan-2-yl)-4-(3-(trifluoromethoxy)phenyl)piperidine-2-carboxamide], the IC50 was 3.71 nM.

The molecule `C[C@H](NC(=O)[C@H]1C[C@@H](c2cccc(C(F)(F)F)c2)CCN1)C(=O)NC1CCc2nc(N)ccc21` (stereo partly drawn) [Compound L044-IS-02, (2R,4S)-N-((2S)-1-((2-amino-6,7-dihydro-5H-cyclopenta[b]pyridin-5-yl)amino)-1-oxopropan-2-yl)-4-(3-(trifluoromethyl)phenyl)piperidine-2-carboxamide] registered an IC50 of 1.83 nM.

In the case of `C[C@H](NC(=O)[C@H]1C[C@@H](c2ccc(F)cc2F)CCN1)C(=O)NC1CCc2nc(N)ccc21` (stereo partly drawn) [Compound L047-IS-02, (2R,4S)-N-((2S)-1-((2-amino-6,7-dihydro-5H-cyclopenta[b]pyridin-5-yl)amino)-1-oxopropan-2-yl)-4-(2,4-difluorophenyl)piperidine-2-carboxamide], the IC50 came out at 3.06 nM.

Turning to `Cc1cc(F)ccc1C1=C[C@@H](C(=O)N[C@@H](C)C(=O)N[C@@H]2CCc3nc(N)ccc32)NCC1` [Compound L074-IS-02, (S)-N-((S)-1-(((R)-2-amino-6,7-dihydro-5H-cyclopenta[b]pyridin-5-yl)amino)-1-oxopropan-2-yl)-4-(4-fluoro-2-methylphenyl)-1,2,5,6-tetrahydropyridine-2-carboxamide], half-maximal inhibition (IC50) was put at 2.79 nM.

`C[C@H](NC(=O)[C@@H]1C=C(c2ccc(F)cc2C(F)F)CCN1)C(=O)N[C@@H]1CCc2nc(N)ccc21` [Compound L080-IS-02, (S)—N—((S)-1-(((R)-2-amino-6,7-dihydro-5H-cyclopenta[b]pyridin-5-yl)amino)-1-oxopropan-2-yl)-4-(2-(difluoromethyl)-4-fluorophenyl)-1,2,5,6-tetrahydropyridine-2-carboxamide]: the IC50 turned out to be 2.87 nM. The IC50 values of the last two molecules are within 1.5-fold of each other.

For `C[C@H](NC(=O)[C@H]1C[C@@H](c2cccc(F)c2F)CCN1)C(=O)NC1CCc2nc(N)ccc21` (stereo partly drawn) [Compound L048-IS-02, (2R,4S)-N-((2S)-1-((2-amino-6,7-dihydro-5H-cyclopenta[b]pyridin-5-yl)amino)-1-oxopropan-2-yl)-4-(2,3-difluorophenyl)piperidine-2-carboxamide], the IC50 worked out at 6.08 nM.

For the molecule `Cc1cc(C[C@@H]2CN[C@@H](C(=O)N[C@@H](C)C(=O)NC3CCc4nc(N)ccc43)C2)ccn1` (stereo partly drawn) [Compound L011, (2R,4S)—N-((2S)-1-((2-amino-6,7-dihydro-5H-cyclopenta[b]pyridin-5-yl)amino)-1-oxopropan-2-yl)-4-((2-methylpyridin-4-yl)methyl) pyrrolidine-2-carboxamide], the IC50 was determined as 7.55 nM.

The molecule `C[C@H](NC(=O)[C@@H]1C=C(c2ccc(F)cc2CF)CCN1)C(=O)N[C@@H]1CCc2nc(N)ccc21` [Compound L079-IS-02, (S)—N—((S)-1-(((R)-2-amino-6,7-dihydro-5H-cyclopenta[b]pyridin-5-yl)amino)-1-oxopropan-2-yl)-4-(4-fluoro-2-(fluoromethyl)phenyl)-1,2,5,6-tetrahydropyridine-2-carboxamide] gave an IC50 of 2.9 nM.

With `C[C@H](NC(=O)[C@@H]1C=C(c2cccc(Cl)c2)CCN1)C(=O)N[C@@H]1CCc2nc(N)ccc21` [Compound L081-IS-02, (S)—N—((S)-1-(((R)-2-amino-6,7-dihydro-5H-cyclopenta[b]pyridin-5-yl)amino)-1-oxopropan-2-yl)-4-(3-chlorophenyl)-1,2,5,6-tetrahydropyridine-2-carboxamide], inhibition was half-maximal at 7.41 nM (IC50).

In the case of `COc1cc2ccccc2cc1C[C@@H]1CN[C@@H](C(=O)N[C@@H](C)C(=O)NC2CCc3nc(N)ccc32)C1` (stereo partly drawn) [Compound L015, (2R,4S)—N-((2S)-1-((2-amino-6,7-dihydro-5H-cyclopenta[b]pyridin-5-yl)amino)-1-oxopropan-2-yl)-4-((3-methoxynaphthalen-2-yl)methyl) pyrrolidine-2-carboxamide], half-maximal inhibition (IC50) was put at 1.99 nM.

In turn, `C[C@H](NC(=O)[C@H]1CN(c2cccc3ccccc23)CCN1)C(=O)NC1CCc2nc(N)ccc21` (stereo partly shown) [Compound L025] came in with an IC50 of 5.52 nM.

For the molecule `C[C@H](NC(=O)[C@H]1C[C@H](Cc2nc3cc(Cl)ccc3s2)CN1)C(=O)NC1CCc2nc(N)ccc21` (stereo partly drawn) [Compound L013, (2R,4R)—N-((2S)-1-((2-amino-6,7-dihydro-5H-cyclopenta[b]pyridin-5-yl)amino)-1-oxopropan-2-yl)-4-((5-chlorobenzo[d]thiazol-2-yl)methyl) pyrrolidine-2-carboxamide], half-maximal inhibition (IC50) required 6.62 nM.

Molecule `Cc1cc(C2=C[C@@H](C(=O)N[C@@H](C)C(=O)N[C@@H]3CCc4nc(N)ccc43)NCC2)ccc1F` (single isomer, unassigned) [Compound L071-IS-02] yielded an IC50 of 7.85 nM.

As to `CC(c1ccccc1)[C@H]1CN[C@@H](C(=O)N[C@@H](C)C(=O)NC2CCc3nc(N)ccc32)C1` (stereo partly drawn) [Compound L009, (2R,4S)—N-((2S)-1-((2-amino-6,7-dihydro-5H-cyclopenta[b]pyridin-5-yl)amino)-1-oxopropan-2-yl)-4-(1-phenylethyl) pyrrolidine-2-carboxamide], 7.08 nM corresponded to half-maximal inhibition (IC50). This IC50 and that of the molecule before are within 1.5-fold of each other.

`C[C@H](NC(=O)[C@@H]1C=C(c2ccc(F)c(C(F)(F)F)c2)CCN1)C(=O)N[C@@H]1CCc2nc(N)ccc21` [Compound L070-IS-02, (S)-N-((S)-1-(((R)-2-amino-6,7-dihydro-5H-cyclopenta[b]pyridin-5-yl)amino)-1-oxopropan-2-yl)-4-(4-fluoro-3-(trifluoromethyl)phenyl)-1,2,5,6-tetrahydropyridine-2-carboxamide] came in with an IC50 of 17.6 nM.

Turning to `C[C@H](NC(=O)[C@H]1C[C@@H](c2ccccc2F)CCN1)C(=O)NC1CCc2nc(N)ccc21` (stereo partly drawn) [Compound L038-IS-02, (2R,4S)—N-((2S)-1-((2-amino-6,7-dihydro-5H-cyclopenta[b]pyridin-5-yl)amino)-1-oxopropan-2-yl)-4-(2-fluorophenyl) piperidine-2-carboxamide], half-maximal inhibition (IC50) was put at 4.76 nM.

As for `Cc1cccc(C[C@@H]2CN[C@@H](C(=O)N[C@@H](C)C(=O)NC3CCc4nc(N)ccc43)C2)c1` (stereo partly drawn) [Compound L016, (2R,4S)—N-((2S)-1-((2-amino-6,7-dihydro-5H-cyclopenta[b]pyridin-5-yl)amino)-1-oxopropan-2-yl)-4-(3-methylbenzyl) pyrrolidine-2-carboxamide], half-maximal inhibition (IC50) was put at 4.64 nM.

Turning to `C[C@H](NC(=O)[C@@H]1C=C(c2ccc(F)c(C(F)F)c2)CCN1)C(=O)N[C@@H]1CCc2nc(N)ccc21` [Compound L078-IS-02, (S)—N—((S)-1-(((R)-2-amino-6,7-dihydro-5H-cyclopenta[b]pyridin-5-yl)amino)-1-oxopropan-2-yl)-4-(3-(difluoromethyl)-4-fluorophenyl)-1,2,5,6-tetrahydropyridine-2-carboxamide], it took 16.3 nM to reach half-maximal inhibition (IC50).

`Cc1ccc(C[C@@H]2CN[C@@H](C(=O)N[C@@H](C)C(=O)NC3CCc4nc(N)ccc43)C2)cc1` (stereo partly drawn) [Compound L004, (2R,4S)—N-((2S)-1-((2-amino-6,7-dihydro-5H-cyclopenta[b]pyridin-5-yl)amino)-1-oxopropan-2-yl)-4-(4-methylbenzyl) pyrrolidine-2-carboxamide] had an IC50 of 12.8 nM.

In the case of `C[C@H](NC(=O)[C@@H]1C=C(c2ccc(F)cc2C(F)(F)F)CCN1)C(=O)N[C@@H]1CCc2nc(N)ccc21` [Compound L073-IS-02, (S)-N-((S)-1-(((R)-2-amino-6,7-dihydro-5H-cyclopenta[b]pyridin-5-yl)amino)-1-oxopropan-2-yl)-4-(4-fluoro-2-(trifluoromethyl)phenyl)-1,2,5,6-tetrahydropyridine-2-carboxamide], the IC50 amounted to 4.25 nM. This IC50 lies about 3-fold lower than the previous one.

Regarding `C[C@H](NC(=O)C1CC(c2ccccc2)CCN1)C(=O)NC1CCc2nc(N)ccc21` (stereo partly drawn) [Compound L021, N-((2S)-1-((2-amino-6,7-dihydro-5H-cyclopenta[b]pyridin-5-yl)amino)-1-oxopropan-2-yl)-4-phenylpiperidine-2-carboxamide], the IC50 came out at 3.75 nM.

In turn, `C[C@H](NC(=O)c1cc(-c2ccccc2)c[nH]1)C(=O)N[C@@H]1CCc2nc(N)ccc21` [Compound L020-IS-01, N—((S)-1-(((R)-2-amino-6,7-dihydro-5H-cyclopenta[b]pyridin-5-yl)amino)-1-oxopropan-2-yl)-4-phenyl-1H-pyrrole-2-carboxamide] registered an IC50 of 15 nM.

The molecule `C[C@H](NC(=O)[C@H]1C[C@H](C2(c3ccccc3)CC2)CN1)C(=O)NC1CCc2nc(N)ccc21` (stereo partly drawn) [Compound L017, (2R,4R)—N-((2S)-1-((2-amino-6,7-dihydro-5H-cyclopenta[b]pyridin-5-yl)amino)-1-oxopropan-2-yl)-4-(1-phenylcyclopropyl) pyrrolidine-2-carboxamide] gave an IC50 of 6.96 nM.
